Experiments:
HCT-116 [1] = experiment: Antiproliferative activity against MTAP deleted human HCT-116 cells assessed as inhibition of cell viability by luminescence based cell titer-glo assay; assay type: functional
HCT-116 [2] = experiment: Antiproliferative activity against MTAP wild type human HCT-116 cells assessed as inhibition of cell viability by luminescence based cell titer-glo assay; assay type: functional
[3] = Selectivity ratio of IC50 for antiproliferative activity against MTAP wild type human HCT-116 cells to IC50 for antiproliferative activity against MTAP deleted human HCT-116 cells; assay type: functional
[4] = Volume of distribution at steady state in male CD-1 mouse at 5 mg/kg, po or 1 mg/kg, iv measured upto 24 hrs; assay type: ADME, organism-based; details: in vivo
[5] = Cmax in male CD-1 mouse at 5 mg/kg, po or 1 mg/kg, iv measured upto 24 hrs; assay type: ADME, organism-based; details: in vivo
[6] = AUC (0 to 24 hrs) in male CD-1 mouse at 5 mg/kg, po or 1 mg/kg, iv measured upto 24 hrs; assay type: ADME, organism-based; details: in vivo
[7] = Oral bioavailability in male CD-1 mouse at 5 mg/kg or 1 mg/kg, iv measured upto 24 hrs; assay type: ADME, organism-based; details: in vivo
[8] = Volume of distribution at steady state in male Sprague-Dawley rat at 5 mg/kg, po or 1 mg/kg, iv measured upto 24 hrs; assay type: ADME, organism-based; details: in vivo
[9] = Cmax in male Sprague-Dawley rat at 5 mg/kg, po or 1 mg/kg, iv measured upto 24 hrs; assay type: ADME, organism-based; details: in vivo
[10] = AUC (0 to 24 hrs) in male Sprague-Dawley rat at 5 mg/kg, po or 1 mg/kg, iv measured upto 24 hrs; assay type: ADME, organism-based; details: in vivo
[11] = Oral bioavailability in male Sprague-Dawley rat at 5 mg/kg or 1 mg/kg, iv measured upto 24 hrs; assay type: ADME, organism-based; details: in vivo

SMILES	IC50 (HCT-116 [1]) [µM]	IC50 (HCT-116 [2]) [µM]	also measured
CN(C(=O)c1cc2c3c(c(N)nc2cn1)COC3)[C@@H]1CCN(c2ccc(C#N)cc2)C1	0.137	9.35	
Cc1cc(NC(=O)C(=O)N2C[C@@H](C)CC[C@@H]2c2ccc3scnc3c2)cnc1N			Ratio IC50 [3]: 13
CN(C(=O)c1ccc2nc(N)c3c(c2c1)COC3)[C@@H]1CCN(c2ccc(C3CC3)cc2)C1	1.57		
CN(C(=O)c1ccc2nc(N)c3c(c2c1)COC3)[C@@H]1CCN(c2ccc(-c3cnn(C)c3)cc2)C1	0.211	> 10	
CN(C(=O)c1ccc2nc(N)c3c(c2c1)COC3)[C@@H]1CCN(c2cccc(C#N)c2)C1	0.317	6.62	
N#Cc1ccc(N2C[C@@H]3C[C@H]2CN3C(=O)c2ccc3nc(N)c4c(c3c2)COC4)cc1	3.17		
CN(C(=O)c1ccc2nc(N)c3c(c2c1)COC3)[C@@H]1CCN(c2ccc(C(F)(F)F)cc2)C1	1.09	> 10	
CN(C(=O)c1ccc2nc(N)c3c(c2c1)COC3)[C@@H]1CCN(c2ccc(C3=CCOCC3)cc2)C1	0.451	> 10	
Cc1cc2nc(N)c3c(c2cc1C(=O)N(C)[C@@H]1CCN(c2ccc(C#N)cc2)C1)COC3	0.007	1.18	Ratio IC50 [3]: 169; Vdss [4]: 2.84 L/kg; Cmax [5]: 611 ng/mL; AUC [6]: 1720 ng·h/mL; bioavailability [7]: 83.1%; Vdss [8]: 1.29 L/kg; Cmax [9]: 496 ng/mL; AUC [10]: 2310 ng·h/mL; bioavailability [11]: 46.1%
Cn1ncc(-c2ccc3c(=O)[nH]nc(CN)c3c2)c1-c1c(F)c(Cl)cc(OC2CC2)c1C#N			Ratio IC50 [3]: 73
Nc1nc2ccc(C(=O)N3C[C@@H]4C[C@H]3CN4c3ccccc3)cc2c2c1COC2	0.719		
CN(C(=O)c1ccc2nc(N)c3c(c2c1)COC3)[C@@H]1CCN(c2ccccc2)C1	1.02		
CN(C(=O)c1ccc2nc(N)c3c(c2c1)COC3)C1CN(c2ccccc2)C1	1.59		
